Data published in ChEMBL document CHEMBL1146711, “A facile synthesis of 1-ethoxy-4-cyano-5-ethoxycarbonyl-3H-azuleno[1,2-c]pyran-3-one, a selective 15-lipoxygenase inhibitor” (Bioorg Med Chem Lett, 2004).

Tests used:
[1] = target: Cyclooxygenase (Homo sapiens) (UniProt P35354+P23219); experiment: Inhibitory concentration against prostaglandin G/H synthase; No inhibition; format: protein assay
[2] = target: Protein kinase C (PKC) (Homo sapiens) (UniProt O94806+P41743+P17252+P05129+Q05655+P05771+Q05513+Q02156+P24723+Q15139+Q04759); experiment: Inhibition of protein kinase C (No inhibition); format: protein assay
[3] = target: Phospholipase A2, major isoenzyme (Sus scrofa) (UniProt P00592); experiment: Inhibitory concentration against phospholipase A2; No inhibition
[4] = Inhibitory concentration against lipid peroxidase was determined; No inhibition
[5] = target: T1, Polyunsaturated fatty acid 5-lipoxygenase (Homo sapiens) (UniProt P09917); experiment: Inhibitory concentration against 5-lipoxygenase was determined; No inhibition
T1 sequence (whole entry): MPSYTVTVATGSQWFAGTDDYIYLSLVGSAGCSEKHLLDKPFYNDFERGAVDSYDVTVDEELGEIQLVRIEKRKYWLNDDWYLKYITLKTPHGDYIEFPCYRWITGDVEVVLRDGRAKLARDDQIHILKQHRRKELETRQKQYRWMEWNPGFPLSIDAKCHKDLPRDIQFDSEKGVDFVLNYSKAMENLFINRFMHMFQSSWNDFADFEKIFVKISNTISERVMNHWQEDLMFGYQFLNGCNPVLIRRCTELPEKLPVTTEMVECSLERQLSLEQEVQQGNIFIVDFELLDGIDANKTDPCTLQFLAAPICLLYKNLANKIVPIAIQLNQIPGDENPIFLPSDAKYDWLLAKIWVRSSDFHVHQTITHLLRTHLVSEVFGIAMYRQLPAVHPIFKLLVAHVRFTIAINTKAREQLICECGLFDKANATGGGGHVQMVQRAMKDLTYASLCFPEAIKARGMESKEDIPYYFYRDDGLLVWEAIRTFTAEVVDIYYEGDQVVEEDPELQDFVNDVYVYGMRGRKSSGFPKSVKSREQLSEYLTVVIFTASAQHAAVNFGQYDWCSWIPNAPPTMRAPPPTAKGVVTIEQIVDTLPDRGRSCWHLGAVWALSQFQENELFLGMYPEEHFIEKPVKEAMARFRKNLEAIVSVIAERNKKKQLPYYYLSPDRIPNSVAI

Measured: Activity

Chain of Phospholipase A2, major isoenzyme (Sus scrofa) (P00592 23-146 limits assumed): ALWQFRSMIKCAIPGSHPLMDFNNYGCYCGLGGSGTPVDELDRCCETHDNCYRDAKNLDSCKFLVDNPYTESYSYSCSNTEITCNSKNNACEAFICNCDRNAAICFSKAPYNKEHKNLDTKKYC

O=C1CCN(c2ccccc2)N1
> 300 µM: [1] | [2] | [3]

CCOC(=O)c1c2cccccc-2c2c(OCC)oc(=O)c(C#N)c12
> 300 µM: all assays above
